This is an account of results in paper PMC9268448, “Synthesis of 4,5-Dihydro-1H-[1,2]dithiolo[3,4-c]quinoline-1-thione Derivatives and Their Application as Protein Kinase Inhibitors” (Molecules, 2022).

Molecules are shown by their SMILES.

One may read the inhibition as the share of the control response that was lost under treatment. A lower inhibition goes with little suppression. In general, IC50 refers to the concentration that inhibits the measured activity by half. The melting point is the temperature, or range, at which the solid turns liquid.

One data set deals with EGFR[L858R][T790] (Homo sapiens, UniProt P00533, L858R/T790M). The data set is described as follows: Kinase inhibition ELISA, EGFR[L858R][T790]. It counts as biochemical. Conditions: 10 μM test compound, 150 μM ATP. On the procedure:
(§1) Study of inhibitory activity. The kinase activity was determined by enzyme-linked immunosorbent assay (ELISA) in polypropylene plates (Costar, 3363) in reaction buffer (20 mM HEPES, pH 7.5, 15 mM MgCl2, 2 mM DTT, 0.2 mM Na3VO4, 0.005% Triton X-100) for 60 min at 30 °C with vigorous stirring. The final concentration of the reaction components: 0.05 μg mL^–1 of the corresponding kinase, 5 nM Histon H3 biotinylated substrate (1–21) (Anaspec, 61702), 150 μM ATP (Sigma, A6419), 10 μM test compound, 5% DMSO. The enzymatic reaction was stopped with a buffer containing 20 mM HEPES (Sigma, H4034), pH 7.5, and 150 mM EDTA (Sigma, E5513). Further, to detect the phosphorylated substrate, the reaction mixture was transferred to pre-prepared plates (Nunc, 468667) coated with neutravidin (1 ng per well; Pierce, 31000) and treated with bovine serum albumin (BSA) to block non-specific binding sites. Incubation was carried out for 1 h at room temperature. After washing the plates three times with phosphate buffer saline (PBS, pH 7.4) with Tween-20, they were incubated sequentially with anti-phospho-Histon H3 antibodies (0.3 ng μL^–1; Millipore, 04-746) and with specific antibodies conjugated with an enzyme-label (peroxidase) Anti-rabbit IgG, HRP-linked Antibody (titer 1/5000; Cell Signaling, 7074). After completion of each incubation step (60 min at room temperature (~20 °C) and continuous stirring), the plates were washed three times from unbound antibody molecules with a PBS solution with Tween-20 and 100 μL of substrate (3.3′,5.5′-tetramethylbenzidine (TMB) dihydrochloride, Sigma, T8768) prepared according to the manufacturer’s instructions. Before measuring the optical density, the reaction was stopped using 0.5 M Н2SO4. The optical density of the solution was determined at λ = 450 nm using a tablet spectrophotometer (TECAN Safire). The data obtained were processed and imported into the HTSCalc program.
(In general: ELISA stands for enzyme-linked immunosorbent assay.)

The target of the next data set is T1, JAK3 (Homo sapiens, UniProt P52333).
T1 sequence (P52333 1-1124): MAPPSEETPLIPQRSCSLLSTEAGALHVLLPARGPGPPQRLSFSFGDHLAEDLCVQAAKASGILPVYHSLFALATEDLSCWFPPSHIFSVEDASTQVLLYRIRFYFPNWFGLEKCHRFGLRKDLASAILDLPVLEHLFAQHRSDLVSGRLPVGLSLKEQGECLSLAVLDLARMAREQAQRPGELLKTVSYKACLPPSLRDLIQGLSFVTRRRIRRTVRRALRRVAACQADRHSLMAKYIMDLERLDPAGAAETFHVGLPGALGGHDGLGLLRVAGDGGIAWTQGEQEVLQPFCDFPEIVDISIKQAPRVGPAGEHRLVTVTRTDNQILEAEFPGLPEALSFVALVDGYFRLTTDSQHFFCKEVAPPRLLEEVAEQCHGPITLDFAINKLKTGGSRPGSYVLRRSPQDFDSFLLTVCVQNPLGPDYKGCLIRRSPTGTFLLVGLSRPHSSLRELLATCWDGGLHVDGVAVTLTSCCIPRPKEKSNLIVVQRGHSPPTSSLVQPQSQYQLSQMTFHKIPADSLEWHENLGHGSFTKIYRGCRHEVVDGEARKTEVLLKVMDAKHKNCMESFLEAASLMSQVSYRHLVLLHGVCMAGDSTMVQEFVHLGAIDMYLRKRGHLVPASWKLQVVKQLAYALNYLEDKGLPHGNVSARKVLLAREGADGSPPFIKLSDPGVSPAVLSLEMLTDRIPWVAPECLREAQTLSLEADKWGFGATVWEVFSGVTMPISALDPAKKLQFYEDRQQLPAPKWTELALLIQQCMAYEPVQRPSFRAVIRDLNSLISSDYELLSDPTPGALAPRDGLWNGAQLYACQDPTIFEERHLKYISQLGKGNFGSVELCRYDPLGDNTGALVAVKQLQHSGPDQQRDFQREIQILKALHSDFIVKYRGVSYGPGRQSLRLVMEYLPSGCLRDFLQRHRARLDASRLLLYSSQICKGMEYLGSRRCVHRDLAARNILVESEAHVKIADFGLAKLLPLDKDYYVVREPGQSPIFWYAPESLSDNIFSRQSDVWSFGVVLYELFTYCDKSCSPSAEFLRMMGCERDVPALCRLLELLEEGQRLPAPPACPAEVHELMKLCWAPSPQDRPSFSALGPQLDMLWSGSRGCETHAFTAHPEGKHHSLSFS
The data set is described as follows: Kinase inhibition ELISA, JAK3. In kind it is biochemical. The settings on record: for inhibition at 10 µM: 10 μM test compound, 150 μM ATP; for IC50: ten concentration points. On the procedure: as §1
For compounds 2a–c,q, the IC50 value (μmol L^–1) was calculated from ten concentration points (in triplicate dilution) obtained twice. The data were analyzed using GraphPad Prism software (v. 3.1).

Another data set has as its target ALK (Homo sapiens, UniProt Q9UM73). Put plainly: Kinase inhibition ELISA, ALK. It counts as biochemical. The settings on record: 10 μM test compound, 150 μM ATP. On the procedure: as §1
For a further data set, the target named is cRAF[Y340D][Y341D] (Homo sapiens, UniProt P04049, Y340D/Y341D). Put plainly: Kinase inhibition ELISA, cRAF[Y340D][Y341D]. In kind it is biochemical. Conditions: for inhibition at 10 µM: 10 μM test compound, 150 μM ATP; for IC50: ten concentration points. On the procedure: (§2) Study of inhibitory activity. […] The enzymatic reaction was stopped with a buffer containing 20 mM HEPES (Sigma, H4034), pH 7.5, and 150 mM EDTA (Sigma, E5513). […] Incubation was carried out for 1 h at room temperature. […] After completion of each incubation step (60 min at room temperature (~20 °C) and continuous stirring), the plates were washed three times from unbound antibody molecules with a PBS solution with Tween-20 and 100 μL of substrate (3.3′,5.5′-tetramethylbenzidine (TMB) dihydrochloride, Sigma, T8768) prepared according to the manufacturer’s instructions. Before measuring the optical density, the reaction was stopped using 0.5 M Н2SO4. The optical density of the solution was determined at λ = 450 nm using a tablet spectrophotometer (TECAN Safire). The data obtained were processed and imported into the HTSCalc program.
cRAF[Y340D][Y341D], sequence (P04049 whole entry Y340D/Y341D): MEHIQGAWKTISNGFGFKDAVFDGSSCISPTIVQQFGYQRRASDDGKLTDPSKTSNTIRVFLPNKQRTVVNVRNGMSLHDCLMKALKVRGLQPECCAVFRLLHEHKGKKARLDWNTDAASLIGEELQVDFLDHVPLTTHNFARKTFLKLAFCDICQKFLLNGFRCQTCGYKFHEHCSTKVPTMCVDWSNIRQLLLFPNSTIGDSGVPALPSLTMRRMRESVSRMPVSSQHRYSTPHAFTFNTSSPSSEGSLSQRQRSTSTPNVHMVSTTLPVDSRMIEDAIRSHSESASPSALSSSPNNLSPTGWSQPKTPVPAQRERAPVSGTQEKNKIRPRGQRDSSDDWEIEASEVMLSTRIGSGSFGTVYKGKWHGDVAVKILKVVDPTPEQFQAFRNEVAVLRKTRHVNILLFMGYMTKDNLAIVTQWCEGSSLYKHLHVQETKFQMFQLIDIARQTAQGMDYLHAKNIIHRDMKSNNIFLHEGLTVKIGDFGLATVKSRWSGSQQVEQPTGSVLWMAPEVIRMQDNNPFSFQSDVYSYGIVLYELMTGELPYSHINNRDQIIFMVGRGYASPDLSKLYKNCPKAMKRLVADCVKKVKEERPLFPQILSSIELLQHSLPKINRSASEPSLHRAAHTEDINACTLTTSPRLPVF
(§3) The data were analyzed using GraphPad Prism software (v. 3.1).

For a further data set, the target named is JAK2 (Homo sapiens, UniProt O60674). The data set is described as follows: Kinase inhibition ELISA, JAK2. It counts as biochemical. The settings on record: 10 μM test compound, 150 μM ATP. On the procedure: as §1
JAK2, sequence (O60674 whole entry): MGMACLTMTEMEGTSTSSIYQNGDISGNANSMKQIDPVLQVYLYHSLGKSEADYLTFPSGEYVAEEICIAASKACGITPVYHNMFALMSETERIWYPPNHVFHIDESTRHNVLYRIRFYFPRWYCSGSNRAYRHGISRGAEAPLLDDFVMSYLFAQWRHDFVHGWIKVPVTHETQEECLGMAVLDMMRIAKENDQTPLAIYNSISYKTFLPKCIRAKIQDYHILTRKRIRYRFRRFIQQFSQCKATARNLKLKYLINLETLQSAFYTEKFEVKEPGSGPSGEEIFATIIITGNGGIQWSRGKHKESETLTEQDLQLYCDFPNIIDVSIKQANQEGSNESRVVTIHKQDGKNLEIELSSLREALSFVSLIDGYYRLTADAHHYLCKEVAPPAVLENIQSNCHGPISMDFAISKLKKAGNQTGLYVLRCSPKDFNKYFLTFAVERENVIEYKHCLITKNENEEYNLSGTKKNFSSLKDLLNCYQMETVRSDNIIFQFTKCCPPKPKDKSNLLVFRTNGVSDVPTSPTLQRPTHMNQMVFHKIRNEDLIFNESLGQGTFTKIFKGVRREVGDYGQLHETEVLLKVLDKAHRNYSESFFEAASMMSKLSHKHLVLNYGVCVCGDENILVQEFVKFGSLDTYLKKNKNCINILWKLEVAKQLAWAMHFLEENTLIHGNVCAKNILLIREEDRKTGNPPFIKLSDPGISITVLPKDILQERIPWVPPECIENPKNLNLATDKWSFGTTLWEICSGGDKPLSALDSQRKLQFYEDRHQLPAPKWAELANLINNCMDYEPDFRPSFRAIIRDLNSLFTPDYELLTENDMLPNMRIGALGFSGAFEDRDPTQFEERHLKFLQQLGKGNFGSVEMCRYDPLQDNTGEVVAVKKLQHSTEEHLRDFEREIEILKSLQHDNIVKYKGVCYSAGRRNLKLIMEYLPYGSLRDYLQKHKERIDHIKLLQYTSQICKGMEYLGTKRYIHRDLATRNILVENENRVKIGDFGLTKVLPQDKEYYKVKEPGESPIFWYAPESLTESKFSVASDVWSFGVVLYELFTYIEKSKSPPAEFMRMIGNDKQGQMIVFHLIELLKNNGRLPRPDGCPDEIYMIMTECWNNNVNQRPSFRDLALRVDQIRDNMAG
For another data set, the target named is T2, NPM1-ALK (Homo sapiens, UniProt Q9UM73).
T2 construct: NPM1 (nucleophosmin, P06748) fusion partner
T2 sequence (Q9UM73 whole entry, looked up, the tested form may be a part): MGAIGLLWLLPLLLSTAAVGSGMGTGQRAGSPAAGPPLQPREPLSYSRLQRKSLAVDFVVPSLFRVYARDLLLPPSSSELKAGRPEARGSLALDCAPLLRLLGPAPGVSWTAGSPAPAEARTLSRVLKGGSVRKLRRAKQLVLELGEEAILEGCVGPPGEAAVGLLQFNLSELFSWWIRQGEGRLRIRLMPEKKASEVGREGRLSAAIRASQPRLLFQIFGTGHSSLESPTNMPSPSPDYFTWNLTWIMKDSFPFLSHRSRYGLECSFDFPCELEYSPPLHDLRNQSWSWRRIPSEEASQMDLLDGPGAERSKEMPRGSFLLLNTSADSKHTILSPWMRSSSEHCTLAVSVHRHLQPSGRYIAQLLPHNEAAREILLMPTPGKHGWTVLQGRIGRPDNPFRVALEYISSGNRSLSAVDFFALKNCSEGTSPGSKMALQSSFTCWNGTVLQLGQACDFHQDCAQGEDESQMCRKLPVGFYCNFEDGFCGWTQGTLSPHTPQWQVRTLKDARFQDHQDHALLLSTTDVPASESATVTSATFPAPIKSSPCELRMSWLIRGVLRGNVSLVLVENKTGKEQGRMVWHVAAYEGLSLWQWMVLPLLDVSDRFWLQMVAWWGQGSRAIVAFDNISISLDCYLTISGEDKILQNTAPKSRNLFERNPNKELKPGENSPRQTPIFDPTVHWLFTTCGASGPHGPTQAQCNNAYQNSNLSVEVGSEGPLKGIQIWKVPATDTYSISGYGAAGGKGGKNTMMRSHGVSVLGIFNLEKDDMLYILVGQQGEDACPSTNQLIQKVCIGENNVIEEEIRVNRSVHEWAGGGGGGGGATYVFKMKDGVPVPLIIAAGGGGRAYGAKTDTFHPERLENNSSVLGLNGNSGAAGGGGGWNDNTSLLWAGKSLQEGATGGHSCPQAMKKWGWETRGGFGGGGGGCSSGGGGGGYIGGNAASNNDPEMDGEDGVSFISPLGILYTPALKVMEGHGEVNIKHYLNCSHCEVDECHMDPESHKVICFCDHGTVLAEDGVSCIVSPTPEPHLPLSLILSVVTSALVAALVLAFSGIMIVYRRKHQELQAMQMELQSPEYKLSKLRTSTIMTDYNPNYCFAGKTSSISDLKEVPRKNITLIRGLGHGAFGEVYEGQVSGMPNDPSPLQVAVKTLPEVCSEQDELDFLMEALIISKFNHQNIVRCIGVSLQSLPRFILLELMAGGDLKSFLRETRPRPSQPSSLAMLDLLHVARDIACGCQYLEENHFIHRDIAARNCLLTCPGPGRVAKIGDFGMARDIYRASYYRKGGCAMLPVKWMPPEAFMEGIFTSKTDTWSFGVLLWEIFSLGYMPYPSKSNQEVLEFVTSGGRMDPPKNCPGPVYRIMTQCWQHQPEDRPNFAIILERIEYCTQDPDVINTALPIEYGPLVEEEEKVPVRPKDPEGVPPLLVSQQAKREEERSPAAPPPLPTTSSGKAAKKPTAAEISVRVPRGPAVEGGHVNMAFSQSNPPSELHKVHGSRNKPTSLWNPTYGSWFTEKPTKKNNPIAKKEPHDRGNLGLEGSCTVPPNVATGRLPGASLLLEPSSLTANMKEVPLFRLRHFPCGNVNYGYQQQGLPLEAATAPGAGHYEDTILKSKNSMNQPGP
Put plainly: Kinase inhibition ELISA, NPM1-ALK. In kind it is biochemical. Conditions: for inhibition at 10 µM: 10 μM test compound, 150 μM ATP; for IC50: ten concentration points. On the procedure:
as §2, §3

EGFR[L858R][T790], sequence (P00533 669-1210 T790M/L858R limits assumed): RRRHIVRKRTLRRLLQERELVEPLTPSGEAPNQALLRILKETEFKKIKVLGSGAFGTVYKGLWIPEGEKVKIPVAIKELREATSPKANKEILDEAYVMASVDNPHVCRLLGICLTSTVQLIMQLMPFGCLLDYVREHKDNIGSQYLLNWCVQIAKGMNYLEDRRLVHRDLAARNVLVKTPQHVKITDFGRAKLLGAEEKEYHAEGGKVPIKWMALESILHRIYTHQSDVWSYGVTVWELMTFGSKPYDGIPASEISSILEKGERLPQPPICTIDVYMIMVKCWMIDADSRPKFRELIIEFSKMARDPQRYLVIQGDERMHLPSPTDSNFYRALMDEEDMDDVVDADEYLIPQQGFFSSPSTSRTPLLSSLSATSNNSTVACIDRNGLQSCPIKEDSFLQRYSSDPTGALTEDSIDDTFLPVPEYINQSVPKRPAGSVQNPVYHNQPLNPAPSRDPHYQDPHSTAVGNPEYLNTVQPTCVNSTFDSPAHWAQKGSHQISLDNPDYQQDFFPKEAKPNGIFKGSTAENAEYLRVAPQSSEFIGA

Regarding `CN1c2ccc(C(=S)N3CCOCC3)cc2-c2c(ssc2=S)C1(C)C` [2a, 4,4,5-Trimethyl-8-(morpholin-4-ylcarbonothioyl)-4,5-dihydro-1H-[1,2]dithiolo[3,4-c]quinoline-1-thione], the melting point fell in the range of 106 to 107 °C. Besides, the inhibition at 10 µM against EGFR[L858R][T790] was determined as 82%. On JAK3, the inhibition at 10 µM worked out at 96% and the IC50 came to 360 nM. The molecule also displayed an inhibition at 10 µM against ALK of 84%. At cRAF[Y340D][Y341D], this molecule registered an inhibition at 10 µM of 93% and an IC50 of 6570 nM. The molecule further gave an inhibition at 10 µM at JAK2 of 81%. Also, at NPM1-ALK, testing at 10 µM gave an inhibition of 87% and the IC50 worked out at 540 nM.

Molecule `COc1ccc2c(c1)-c1c(ssc1=S)C(C)(C)N2C(=O)c1cccs1` [2i, 8-Methoxy-4,4-dimethyl-5-(2-thienylcarbonyl)-4,5-dihydro-1H-[1,2]dithiolo[3,4-c]quinoline-1-thione] registered a melting point of 158 to 159 °C. The same molecule had an inhibition at 10 µM against EGFR[L858R][T790] of 24%. The molecule also came in with an inhibition at 10 µM on JAK3 of 89%. Testing at 10 µM against ALK gave an inhibition of 81%. For the same molecule, the inhibition at 10 µM against cRAF[Y340D][Y341D] worked out at 76%. The molecule further came in with an inhibition at 10 µM on JAK2 of 64%. This molecule also yielded an inhibition at 10 µM against NPM1-ALK of 77%.

Turning to `CC1(C)c2ssc(=S)c2-c2cc(C(=S)N3CCCCC3)ccc2N1Cc1ccccc1` [2d, 5-Benzyl-4,4-dimethyl-8-(piperidin-1-ylcarbonothioyl)-4,5-dihydro-1H-[1,2]dithiolo[3,4-c]quinoline-1-thione], the inhibition at 10 µM is 12% against EGFR[L858R][T790]; 69% against JAK3; 39% against ALK; 61% against cRAF[Y340D][Y341D]; 33% at JAK2; 41% at NPM1-ALK.

Take `CN1c2ccc(C(=S)N3CCN(c4ccccc4)CC3)cc2-c2c(ssc2=S)C1(C)C` [2b, 4,4,5-Trimethyl-8-[(4-phenylpiperazin-1-yl)carbonothioyl]-4,5-dihydro-1H-[1,2]dithiolo[3,4-c]quinoline-1-thione]: the inhibition at 10 µM against EGFR[L858R][T790] is 84%; against JAK3, 95%; against ALK, 86%; against cRAF[Y340D][Y341D] it was 92%; against JAK2 it was 83%; against NPM1-ALK it was 90%. The IC50 on JAK3 came to 380 nM; at NPM1-ALK, 250 nM.

`COc1ccc2c(c1)-c1c(ssc1=S)C(C)(C)N2C(=O)CN1C(=O)CCC1=O` [2j, 1-[2-(8-Methoxy-4,4-dimethyl-1-thioxo-1,4-dihydro-5H-[1,2]dithiolo[3,4-c]quinolin-5-yl)-2-oxoethyl]pyrrolidine-2,5-dione] yielded a melting point of 201 to 202 °C. This molecule had an inhibition at 10 µM against EGFR[L858R][T790] of 9%. The molecule further registered an inhibition at 10 µM at JAK3 of 39%. In addition, at ALK, the inhibition at 10 µM was 7%. This molecule showed an inhibition at 10 µM on cRAF[Y340D][Y341D] of 5%. Also, on JAK2, the inhibition at 10 µM is 11%. On NPM1-ALK, this molecule returned an inhibition at 10 µM of 56%.

In turn, `CC1(C)Nc2cc3c(cc2-c2c1ssc2=S)OCCO3` [2h, 4,4-dimethyl-4,5,8,9-tetrahydro-1H-[1,4]dioxino[2,3-g][1,2]dithiolo[3,4-c]quinoline-1-thione] showed a melting point of 238 to 239 °C. On EGFR[L858R][T790], this molecule returned an inhibition at 10 µM of 27%. At JAK3, this molecule gave an inhibition at 10 µM of 36%. Also, on ALK, testing at 10 µM gave an inhibition of 49%. In addition, on cRAF[Y340D][Y341D], the inhibition at 10 µM stood at 44%. The inhibition at 10 µM at JAK2 was 10%. The same molecule showed an inhibition at 10 µM against NPM1-ALK of 42%.

In the case of `CC1(C)c2ssc(=S)c2-c2cc(C(=S)N3CCOCC3)ccc2N1Cc1ccccc1` [2c, 5-Benzyl-4,4-dimethyl-8-(morpholin-4-ylcarbonothioyl)-4,5-dihydro-1H-[1,2]dithiolo[3,4-c]quinoline-1-thione], the inhibition at 10 µM at EGFR[L858R][T790] is 88%; against JAK3, 95%; on ALK, 77%; at cRAF[Y340D][Y341D] it was 93%; at JAK2 it was 76%; against NPM1-ALK, 75%. Further, the values for the IC50 against JAK3 and on cRAF[Y340D][Y341D] were 410 nM and 780 nM, respectively.
